Read-outs that look alike come from different tables or passages of the source.
Key:
[1] = system: two-spotted spider mite; experiment: Test 6: Effect on Two-Spotted Spider mite adults; assay type: in vivo; details: Tetranychus urticae
Procedure: (§1) To a mixture of 20 parts of the compound of the present invention and 20 parts of Sorpol SM-200 (registered trademark for the product supplied by Toho Chemical Industrial Co., Ltd.) was added 60 parts of xylol, and the mixture was sufficiently blended. The obtained emulsifiable concentrate was diluted at a predetermined concentration with distilled water, and the obtained dilution was used.
A kidney bean leaf disc perforated with a cork borer (15 mm in diameter) was placed on water-impreganated absorbent cotton (2 cm×2 cm), and 10 adults of two-spotted spider mite were set free. A chemical dilution having a concentration of 500 ppm was applied with an applicator in an amount of 3 ml.
The leaf disc-placed absorbent cotton was placed in a thermostat chamber maintained at 25° C. After 24 hours, the number of killed adults was counted and the mortality was calculated. The test was made on three leaf discs and the average value was calculated.

[2] = system: resistant green rice leafhopper (collected at Nakagawara); experiment: Test 3: Effect on Resistant Green Rice Leafhopper; assay type: in vivo, Nephotettix cincticeps Uhler; details: Nephotettix cincticeps, 24 h, read-out: Mortality (%) Green Rice Leafhopper Collected at Nakagawara
Procedure: as §1
(§2) Seedlings (having 2 to 3 leaves) of paddy rice were hydroponically cultured in a pot having a diameter of 5 cm. A chemical dilution having a concentration of 100 or 20 ppm, prepared in the same manner as described in Test 1, was applied with a sprayer at a rate of 3 ml per pot. The treated seedlings were air-dried and covered with a metal net cylinder, and female adults of resistant green rice leafhopper (collected at Nakagawara) and sensitive green rice leafhopper (collected at Chigasaki) were set, respectively, free in the pot at a density of 10 adults per pot. After of 24 hours, the numbers of killed and living adults were counted and the mortality was calculated. The test was made on three pots and the average value was calculated.

[3] = Test 9: Toxicity Test (acute oral, mice); details: mouse, in vivo, po
Procedure: In the fish toxicity test, the test compound was dissolved in acetone to form a 1% solution, and a predetermined amount of the solution was used. In the mouse toxicity test, the test compound of the present invention was dissolved or suspended in corn oil, and a predetermined amount of the solution or suspension was used.
A predetermined amount of a solution or suspension of a test compound in corn oil was orally administered to male mice having a body weight of 19 to 23 g (0.2 ml per 10 g of the body weight). After 7 days, the number of killed mice was counted and the influences on the mice were examined.

[4] = system: sensitive green rice leafhopper (collected at Chigasaki); experiment: Test 3: Effect on Sensitive Green Rice Leafhopper; assay type: in vivo; details: Nephotettix cincticeps, female adults, 24 hours
Procedure: as §1, §2

[5] = system: German cockroach; experiment: Test 7: Effect on German Cockroach; assay type: in vivo; details: Blattella germanica, male adults, 24 hours, agonized and killed; for mortality at 10 mg/m2: 10 mg/m^2; for mortality at 50 mg/m2: 50 mg/m^2
Procedure: The bottom face of a high Petri dish having a diameter of 9 cm and a height of 9 cm was treated with 50 or 10 mg/m^2 of a test compound and the dish was air-dried. In order to prevent the adults from escaping from the dish, the inner wall of the dish was treated with butter. Then, 10 male adults of German cockroach were set free in each dish, and the dish was placed in a thermostat chamber maintained at 25° C. After 24 hours, the number of agonized and killed adults was counted. The test was made on two dishes and the average value was calculated.

[6] = system: third-instar larvae of diamond back moth; experiment: Test 4: Effect on Diamond Back Moth; assay type: in vivo; details: Plutella xylostella, 24 hours
Procedure: as §1
Cabbage leaves were spread in a plastic cup, and 10 third-instar larvae of diamond back moth were set free in the cup.
A chemical dilution having a concentration of 100 or 20 ppm, prepared in the same manner as described in Test 1, was applied from an applicator at a rate of 3 ml per cup.
After scattering of the chemical dilution, the cup was covered, and after 24 hours, the numbers of killed and living larvae were counted and the mortality was calculated. The test was made on three cups and the average value was calculated.

[7] = system: Second-instar and fifth-instar larvae of tobacco cutworm; experiment: Test 2: Tobacco Cutworm Larva Dipping Test; assay type: in vivo
Procedure: as §1
A dilution having a chemical concentration of 100 or 20 ppm was prepared in the same manner as described in Test 1.
Second-instar and fifth-instar larvae of tobacco cutworm were dipped in the dilution for 5 seconds, and the excessive dilution was removed by a filter paper. Then, the larvae were set free in a plastic cup and an artificial diet was supplied thereto. The cup was allowed to stand still in a thermostat chamber maintained at 25° C. After 24 hours, the numbers of the killed and living larvae were counted and the mortality was calculated. The test was made on three cups and the result was expressed by an average value.

[8] = 500 ppm, adults, 24 hours, read-out: Mortality (%)
[9] = 20 ppm, second-instar larvae, 24 hours, read-out: Mortality (%) Second-Instar Larvae
[10] = 100 ppm, second-instar larvae, 24 hours, read-out: Mortality (%) Second-Instar Larvae
[11] = topical, 24 h, read-out: Mortality (%) Fifth-Instar Larvae

Compound	mortality at 20 ppm [2] [%]	mortality at 100 ppm [2] [%]	mortality at 20 ppm [4] [%]	mortality at 100 ppm [4] [%]	mortality at 10 mg/m2 [5] [%]	mortality at 50 mg/m2 [5] [%]	mortality at 20 ppm [6] [%]	mortality at 100 ppm [6] [%]	further results
CCOP(=S)(OCC)Oc1ccc(=O)n(-c2ccccc2)n1 [(d), 0,0-diethyl-0-(3-oxo-2-phenyl-2H-pyridazin-6-yl)-phosphorothioate, reference compound]									mortality at 500 ppm ([1]; 24 h): 80%
CC(C)C(COCc1ccc(F)c(Oc2ccccc2)c1)c1ccc(Cl)cc1 (centres unmarked) [Compound 8, 3-Phenoxy-4-fluorobenzyl 2-(4-chlorophenyl)-3-methylbutyl ether]	100	100	100	100					LD50 at 168 h [3]: > 500 mg/kg
CC(C)(COCc1ccc(F)c(Oc2ccccc2F)c1)c1ccc(Cl)cc1 [Compound 11, 3-(2-Fluorophenoxy)-4-fluorobenzyl 2-(4-chlorophenyl)-2-methylpropyl ether]	100	100	100	100	100	100	100	100	mortality at 500 ppm [1, 8]: 100%
CC(C)(COCc1ccc(F)c(Oc2ccccc2)c1)c1ccc2ccccc2c1 [Compound 12, 3-Phenoxy-4-fluorobenzyl 2-(naphthalene-2-yl)-2-methylpropyl ether]	95	100	80	100					LD50 at 168 h [3]: > 500 mg/kg
CC(C)(COCc1ccc(F)c(Oc2ccccc2)c1)c1cccc(C(F)(F)F)c1 [Compound 17, 3-Phenoxy-4-fluorobenzyl 2-(3-trifluoromethylphenyl)-2-methylpropyl ether]	100	100	90	100					
Cc1cccc(Oc2cc(COCC(C)(C)c3ccc(Cl)cc3)ccc2F)c1 [Compound 22, 3-(3-Methylphenoxy)-4-fluorobenzyl 2-(4-chlorophenyl)-2-methylpropyl ether]	75	100	60	100					
CC(C)(COCc1ccc(F)c(Oc2ccccc2)c1)c1ccc([N+](=O)[O-])cc1 [Compound 30, 3-Phenoxy-4-fluorobenzyl 2-(4-nitrophenyl)-2-methylpropyl ether]	90	100	80	100					
CC(C)(COCc1cc(Oc2ccccc2)ccc1F)c1ccc(Cl)cc1 [Compound 32, 3-Phenoxy-6-fluorobenzyl 2-(4-chlorophenyl)-2-methylpropyl ether]									LD50 at 168 h [3]: > 500 mg/kg
CC(C)(COCc1ccc(F)c(Oc2ccccc2)c1)c1ccc2c(c1)OCO2 [Compound 33, 3-Phenoxy-4-fluorobenzyl 2-(3,4-methylenedioxyphenyl)-2-methylpropyl ether]	100	100	100	100					
Cc1ccc(C(C)(C)COCc2cc(Cl)cc(Oc3ccccc3)c2)cc1 [Compound 37, 3-Phenoxy-5-chlorobenzyl 2-(4-methylphenyl)-2-methylpropyl ether]									LD50 at 168 h [3]: > 500 mg/kg
CC(=O)c1ccc(C(C)(C)COCc2ccc(F)c(Oc3ccccc3)c2)cc1 [Compound 40]									LD50 at 168 h [3]: > 500 mg/kg
CCOc1ccc(C(CC)COCc2ccc(F)c(Oc3ccccc3)c2)cc1 (centres unmarked) [Compound 47, 3-Phenoxy-4-fluorobenzyl 2-(4-ethoxyphenyl)-butylether]					100	100	100	100	mortality at 500 ppm [1, 8]: 85%
CC(C)(COCc1ccc(F)c(Oc2ccccc2)c1)c1ccc(F)c(Cl)c1 [Compound 50, 3-Phenoxy-4-fluorobenzyl 2-(3-chloro-4-fluorophenyl)-2-methylpropyl ether]					100	100			mortality at 20 ppm [7, 9]: 90%; mortality at 100 ppm [7, 10]: 100%; mortality at 20 ppm [7, 11]: 80%; mortality at 100 ppm [7, 11]: 100%
CCOc1ccc(Oc2cc(COCC(C)(C)c3ccc(OCC)cc3)ccc2F)cc1 [Compound 53, 3-(4-Ethoxyphenoxy)-4-fluorobenzyl 2-(4-ethoxyphenyl)-2-methylpropyl ether]	100	100	90	100	100	100			
CCOc1ccc(C(C)(CC)COCc2ccc(F)c(Oc3ccccc3)c2)cc1 (centres unmarked) [Compound 55, 3-Phenoxy-4-fluorobenzyl 2-(4-ethoxyphenyl)-2-methylbutyl ether]					100	100	100	100	
CCOc1cccc(C(C)(C)COCc2ccc(F)c(Oc3ccccc3)c2)c1 [Compound 57]	100	100	100	100			100	100	
CC(C)c1ccc(C(C)(C)COCc2ccc(F)c(Oc3ccccc3)c2)cc1 [Compound 58]	100	100	100	100	100	100			mortality at 500 ppm [1, 8]: 100%
CCOc1ccc(C(COCc2ccc(F)c(Oc3ccccc3)c2)C(C)C)cc1 (centres unmarked) [Compound 62, 3-Phenoxy-4-fluorobenzyl 2-(4-ethoxyphenyl)-3-methylbutyl ether]	100	100	100	100			100	100	
CCC(C)Oc1ccc(C(C)(C)COCc2ccc(F)c(Oc3ccccc3)c2)cc1 (centres unmarked) [Compound 63]	100	100	100	100	100	100			mortality at 500 ppm [1, 8]: 100%
CCCOc1ccc(C(C)(C)COCc2ccc(F)c(Oc3ccccc3)c2)cc1 [Compound 65]	100	100	100	100	100	100	100	100	
CC(C)(COCc1ccc(F)c(Oc2ccccc2)c1)c1ccc(I)cc1 [Compound 66, 3-Phenoxy-4-fluorobenzyl 2-(4-iodophenyl)-2-methylpropyl ether]	100	100	100	100	100	100	90	100	mortality at 500 ppm [1, 8]: 100%; mortality at 20 ppm [7, 9]: 90%; mortality at 100 ppm [7, 10]: 100%; mortality at 20 ppm [7, 11]: 75%; mortality at 100 ppm [7, 11]: 100%
